Assay results published in ChEMBL document CHEMBL1201862, “PubChem BioAssay data set” (2004).
The source made the active and inactive calls.

How the values were obtained:
[1] = viability of uninfected HEp-2 cells – cell-based, HTS, cytotoxicity control for RSV inhibitor project, dose response (AID 2410); assay type: functional; conditions: human respiratory syncytial virus
[2] = target: T1, Calpain-2 catalytic subunit (Sus scrofa, UniProt P43367); assay: m-calpain protease blockers, concentration series – biochemical, fluorogenic peptide substrate, dose response (AID 1420); assay type: functional
T1 sequence (P43367 whole entry): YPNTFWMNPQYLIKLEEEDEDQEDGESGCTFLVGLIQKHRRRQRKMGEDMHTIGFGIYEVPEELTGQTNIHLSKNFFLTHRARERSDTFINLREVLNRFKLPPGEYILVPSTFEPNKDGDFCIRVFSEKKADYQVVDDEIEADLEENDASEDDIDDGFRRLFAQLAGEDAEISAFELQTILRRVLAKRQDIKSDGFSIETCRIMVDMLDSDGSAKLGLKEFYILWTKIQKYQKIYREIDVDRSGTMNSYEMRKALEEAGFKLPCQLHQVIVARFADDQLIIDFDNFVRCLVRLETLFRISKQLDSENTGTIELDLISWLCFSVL

[3] = target: T2, Replicative DNA helicase DnaB (Mycobacterium tuberculosis, UniProt P9WMR3); assay: DnaB intein splicing inhibitors, dose response, biochemical, cell-free fluorescence (AID 449749); assay type: functional
T2 sequence (P9WMR3 whole entry): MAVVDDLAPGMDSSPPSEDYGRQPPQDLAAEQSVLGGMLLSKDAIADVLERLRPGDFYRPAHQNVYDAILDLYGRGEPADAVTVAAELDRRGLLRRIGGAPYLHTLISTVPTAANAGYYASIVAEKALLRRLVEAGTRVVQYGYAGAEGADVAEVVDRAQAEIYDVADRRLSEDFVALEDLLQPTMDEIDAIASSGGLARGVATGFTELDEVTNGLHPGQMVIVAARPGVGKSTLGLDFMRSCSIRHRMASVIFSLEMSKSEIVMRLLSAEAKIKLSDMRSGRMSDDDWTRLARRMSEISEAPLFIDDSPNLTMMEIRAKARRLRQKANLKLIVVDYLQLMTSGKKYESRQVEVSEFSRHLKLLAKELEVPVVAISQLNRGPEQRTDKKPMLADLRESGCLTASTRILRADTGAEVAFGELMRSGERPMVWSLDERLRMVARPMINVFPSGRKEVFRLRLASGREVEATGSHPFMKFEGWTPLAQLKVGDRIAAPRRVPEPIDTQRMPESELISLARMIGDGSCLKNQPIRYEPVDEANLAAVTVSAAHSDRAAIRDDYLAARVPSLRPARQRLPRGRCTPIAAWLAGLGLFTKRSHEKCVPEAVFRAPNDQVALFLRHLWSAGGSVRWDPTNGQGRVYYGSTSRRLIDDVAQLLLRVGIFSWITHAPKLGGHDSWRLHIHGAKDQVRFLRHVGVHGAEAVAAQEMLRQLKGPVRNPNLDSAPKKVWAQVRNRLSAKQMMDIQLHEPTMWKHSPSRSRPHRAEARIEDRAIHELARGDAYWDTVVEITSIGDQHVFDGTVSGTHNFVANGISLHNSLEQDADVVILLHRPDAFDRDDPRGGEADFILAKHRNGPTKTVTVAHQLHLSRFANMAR

Protein RecA = target: T3, Protein RecA (Mycobacterium tuberculosis, UniProt P9WHJ3); assay: Fluorescence Cell-Free Homogeneous Dose Retest to Identify Inhibitors of RecA-Intein Splicing Activity. [Related pubchem assays (depositor defined):AID2097, AID2223, AID489010, AID492950]; assay type: functional
T3 sequence (P9WHJ3 whole entry): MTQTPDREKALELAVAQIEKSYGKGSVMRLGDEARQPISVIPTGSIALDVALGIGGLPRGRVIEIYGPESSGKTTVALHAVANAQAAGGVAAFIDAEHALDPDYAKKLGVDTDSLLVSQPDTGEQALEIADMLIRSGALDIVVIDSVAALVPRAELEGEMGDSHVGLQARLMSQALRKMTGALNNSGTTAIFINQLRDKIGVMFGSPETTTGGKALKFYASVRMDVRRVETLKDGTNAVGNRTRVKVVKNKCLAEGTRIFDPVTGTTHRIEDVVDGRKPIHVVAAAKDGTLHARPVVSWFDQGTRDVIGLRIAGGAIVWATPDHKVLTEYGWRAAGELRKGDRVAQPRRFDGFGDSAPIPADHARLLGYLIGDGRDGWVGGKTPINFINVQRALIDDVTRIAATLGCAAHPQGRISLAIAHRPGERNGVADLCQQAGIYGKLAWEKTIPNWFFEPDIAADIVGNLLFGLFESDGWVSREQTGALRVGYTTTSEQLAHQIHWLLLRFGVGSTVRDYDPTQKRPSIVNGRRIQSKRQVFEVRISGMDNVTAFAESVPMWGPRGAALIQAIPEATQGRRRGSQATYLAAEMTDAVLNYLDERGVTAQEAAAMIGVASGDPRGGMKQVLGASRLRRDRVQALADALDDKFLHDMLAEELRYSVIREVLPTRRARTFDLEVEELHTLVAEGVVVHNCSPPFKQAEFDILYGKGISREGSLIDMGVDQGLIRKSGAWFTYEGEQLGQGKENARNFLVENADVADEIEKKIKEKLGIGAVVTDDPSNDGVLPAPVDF

[4] = Trypanosoma cruzi growth suppression in host cells – NIH3T3 host cells, beta-gal luminescence, confirmation (AID 2044); assay type: functional, cell-based;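 note: intracellular parasites grown in NIH/3T3 mouse fibroblasts as host cells; luminescent beta-galactosidase reporter signal from transgenic T. cruzi replicating inside host cells; inhibitors lower the luminescence signal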
[5] = microbe, parasite or virus in culture; assay type: functional; conditions: Mycobacterium tuberculosis
[6] = NIH3T3 cell viability loss – ATP luminescence, mouse fibroblasts, counter-screen, dose response (AID 2010); assay type: functional, cell-based;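 note: cells exposed to compound for about 90 hours before reading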
[7] = alpha-synuclein stem-loop luciferase translation blockers – H4 neuroglioma cells, luminescence, confirmation (AID 1988); assay type: functional, cell-based
[8] = luciferase reporter signal suppression in cells – H4 neuroglioma cells, luminescence, dose response (AID 1990); assay type: functional, cell-based
INS1 = assay: INS-1E survival protection against cytokine death – cell-based, luminescence, retest, dose response (AID 449756); assay type: functional; conditions: Rattus norvegicus;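 note: cell death triggered by IL-1 beta plus TNF-alpha plus IFN-gamma mixture; protective hits raise ATP signal compared with cytokine alone wells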
Cytochrome P450 3A4 = Cytochrome P450 3A4 (Homo sapiens, UniProt P08684);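 note: CYP3A4 tested as one member of a cytochrome P450 panel screen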
Cytochrome P450 3A4, sequence (P08684 whole entry): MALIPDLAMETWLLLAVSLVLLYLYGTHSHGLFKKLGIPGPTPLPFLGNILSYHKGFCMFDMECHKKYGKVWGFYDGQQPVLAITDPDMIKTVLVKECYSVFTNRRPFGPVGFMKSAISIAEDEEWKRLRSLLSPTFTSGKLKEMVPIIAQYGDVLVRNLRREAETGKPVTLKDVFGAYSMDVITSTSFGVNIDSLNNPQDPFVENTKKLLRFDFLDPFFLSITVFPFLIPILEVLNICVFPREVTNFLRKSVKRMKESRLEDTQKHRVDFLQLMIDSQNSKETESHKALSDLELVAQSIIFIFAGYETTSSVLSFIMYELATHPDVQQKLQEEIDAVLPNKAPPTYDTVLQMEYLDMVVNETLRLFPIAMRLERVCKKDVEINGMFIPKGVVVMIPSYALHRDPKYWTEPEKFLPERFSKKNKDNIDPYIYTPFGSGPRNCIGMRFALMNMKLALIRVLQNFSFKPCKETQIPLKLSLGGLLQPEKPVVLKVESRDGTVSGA

BJ [9] = assay: BJ-TERT-LT-ST fibroblast viability loss – cell-based, RAS-independent, luminescence, dose response (AID 1935); assay type: functional; conditions: Homo sapiens;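 note: BJ fibroblasts immortalized with TERT plus LT and ST oncogenes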
[10] = DRD fibroblast viability loss – cell-based, non-viral oncogenic, luminescence, dose response (AID 1934); assay type: functional; conditions: Homo sapiens
BJ [11] = assay: BJ-TERT fibroblast viability loss – cell-based, RAS-independent, luminescence, dose response (AID 1933); assay type: functional; conditions: Homo sapiens
BJ [12] = assay: cells; assay type: functional, cell-based; conditions: Homo sapiens
[13] = Luminescence Cell-Based Dose Retest to Confirm Inhibitors of Cancer Stem Cells. [Related pubchem assays (depositor defined):AID2717, AID2721]; assay type: functional; conditions: Homo sapiens
[14] = target: T4, Heat shock factor protein 1 (Mus musculus, UniProt P38532); assay: enhancement of HSF1-driven luciferase signal – cell-based, NIH3T3, luminescence, dose retest, confirmation (AID 435004); assay type: functional;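 note: stress induced by proteasome inhibitor MG132 added 30 min after compound; luciferase reporter driven by HSF1 response element in NIH3T3 cells; actives raise luminescence as potentiators of the MG132 stress response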
T4 sequence (P38532 whole entry): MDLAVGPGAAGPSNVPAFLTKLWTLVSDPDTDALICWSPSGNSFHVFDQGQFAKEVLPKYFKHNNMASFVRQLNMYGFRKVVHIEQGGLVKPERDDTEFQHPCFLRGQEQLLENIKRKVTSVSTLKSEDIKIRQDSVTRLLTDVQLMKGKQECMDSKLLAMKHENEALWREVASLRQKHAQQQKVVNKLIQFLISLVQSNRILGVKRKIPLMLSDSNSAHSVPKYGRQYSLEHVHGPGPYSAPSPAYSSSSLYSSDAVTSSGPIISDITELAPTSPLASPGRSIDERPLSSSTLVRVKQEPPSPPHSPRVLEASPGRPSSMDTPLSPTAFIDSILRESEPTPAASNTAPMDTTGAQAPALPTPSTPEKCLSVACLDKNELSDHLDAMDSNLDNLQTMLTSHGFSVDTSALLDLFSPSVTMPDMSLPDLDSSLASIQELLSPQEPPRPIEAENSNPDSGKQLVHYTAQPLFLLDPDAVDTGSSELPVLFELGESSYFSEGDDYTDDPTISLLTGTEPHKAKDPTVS

cells = assay type: functional
[15] = P. falciparum Dd2 growth inhibitors, dose response, SYBR Green, cherry-picked samples (AID 1159567); assay type: functional, cell-based

CCOC(=O)c1nnc(-c2ccc(C)cc2)nc1Oc1ccccc1Cl
CC50 [1]: 21.3 µM (active)

Cc1cccc(NC(=O)CSc2nnc(CNC(=O)c3cccs3)o2)c1C
IC50 [2]: 7.44 µM (not active)

CCCc1n[nH]c2c1C(c1ccc(O)cc1OCC)C(C#N)=C(N)O2 (centres undefined)
AC50 [3]: 40.3 µM (active) | EC50 (Protein RecA): 4.6 µM (active)

CC(=O)N1CC2(c3ccccc3)CN(C(C)=O)CC(c3ccccc3)(C1)C2=O
AC50 [3]: > 380 µM (inactive) | EC50 (Protein RecA): > 380 µM (inactive)

Cc1ccc(NC(=O)CSc2nc3ccccc3c(=O)n2CCCN2CCCCC2)cc1Cl
EC50 [4]: 2.29 µM (active) | CC50 [5]: 14.4 µM (active) | EC50 [6]: > 60 µM (inconclusive)

COc1ccc(CCNC(=O)CC2(CC3=NS(=O)(=O)c4ccccc4N3)CCCC2)cc1OC
EC50 [7]: > 120 µM (not active) | EC50 [8]: 18.8 µM (active)

Cc1cccc(NC(=O)c2cc3c(=O)n4ccccc4nc3n(CC(C)C)c2=N)c1
IC50 [2]: > 50 µM (not active)

CCCCCCC(=O)Nc1nc(C)c(-c2csc(Nc3ccccc3OC)n2)s1
CC50 [1]: 15 µM (active)

Cc1ccc(C)c(S(=O)(=O)N2CCN(C(=O)c3ccccc3Cc3ccccc3)CC2)c1
CC50 [1]: 22.6 µM (active)

O=C(Nc1cccc(-c2nnc(-c3ccco3)o2)c1)C(c1ccccc1)c1ccccc1
CC50 [1]: 15.2 µM (active)

COC(=O)c1c(C)oc2ccc(N(C(=O)c3ccncc3)S(=O)(=O)c3ccc(C)cc3C)cc12
AC50 (INS1): 3.85 µM (active) | AC50 [3]: 2.27 µM (active) | EC50 (Protein RecA): 10.9 µM (active)

CC(=O)Oc1cc2c(cc1Cl)C1(CC(c3ccccc3Cl)O2)CC(C)(C)N=C(S)N1 (centres undefined)
AC50 [3]: 4.22 µM (active) | EC50 (Protein RecA): 14.1 µM (active)

O=c1ccc2ccc(Oc3ccc(Cl)cc3[N+](=O)[O-])cc2o1
IC50 [2]: < 0.4 µM (not active)

CC(=C/C(=O)O)/C(=C/c1ccccc1)C(=O)O
IC50 [2]: < 0.4 µM (not active)

O=C(NCCN1CCN(c2cccc(Cl)c2)CC1)c1ccc(CSc2nc3cc[nH]cc-3n2)cc1
CC50 [5]: > 40 µM (active)

CN(Cc1ccc(Cl)cc1)C(=O)CCl
AC50 [3]: 21.8 µM (active) | EC50 (Protein RecA): 2.61 µM (active)

CCOC(=O)c1nnc2cc(-c3ccccc3)nn2c1C
CC50 [1]: > 50 µM (active)

COc1ccc(-c2cc(C(F)(F)F)nc(SCc3cccc(C(=O)O)c3)n2)cc1
AC50 (Cytochrome P450 3A4): 14.1 µM (inconclusive) | CC50 [1]: 22.2 µM (active)

COC(=O)/C(=C\Nc1ccc(Cl)cc1Cl)NC(=O)c1ccc(OC)cc1
EC50 (BJ [9]): 15.3 µM (inconclusive) | EC50 [10]: 4.31 µM (active) | EC50 (BJ [11]): 10 µM (inconclusive) | EC50 (BJ [12]): 57.7 µM (active)

Oc1ccc(Nc2nc(-c3ccc4ccccc4c3)cs2)cc1
AC50 (INS1): 16.6 µM (active) | CC50 [5]: 17.1 µM (active) | AC50 [3]: 67.6 µM (active) | EC50 (Protein RecA): 7.3 µM (active) | AC50 [13]: 5.31 µM (active)

C/C(CC(=O)Nc1cc(C)ccn1)=N\NC(=O)c1cccc(F)c1
AC50 [3]: 18.7 µM (active) | EC50 (Protein RecA): 8.06 µM (active)

Cc1c(C(=O)N/N=C/c2ccccc2)[nH]c2c([N+](=O)[O-])cccc12
EC50 (BJ [9]): 0.708 µM (inconclusive) | EC50 [10]: 27.1 µM (inconclusive) | EC50 (BJ [11]): 0.776 µM (active) | EC50 (BJ [12]): 73.1 µM (inconclusive)

S=C(c1ccc(N2CCCC2)cc1)N1CCCCC1
IC50 [2]: 12.1 µM (active)

CCOC(=O)Cn1c(=O)cc(C)c2cccc(C)c21
IC50 [2]: < 0.4 µM (not active)

O=c1cc(-c2ccccc2)oc2ccccc12 [FLAVONE]
CC50 [1]: 34.2 µM (active)

CC(=O)Nc1cccc(C(=O)/C=C/c2ccc(/C=C/C(=O)c3cccc(NC(C)=O)c3)cc2)c1
EC50 (BJ [9]): 3.93 µM (inconclusive) | EC50 [10]: 5.45 µM (inconclusive) | EC50 (BJ [11]): 5.89 µM (inconclusive) | EC50 (BJ [12]): > 150 µM (not active)

CSC(=N/c1cc(Cl)ccc1Cl)/C(C#N)=C(/O)c1ccco1
EC50 [14]: 11.2 µM (active) | IC50 (cells): 7.46 µM (active) | CC50 [5]: 37.1 µM (active) | AC50 [3]: 2.51 µM (active) | EC50 (Protein RecA): 0.912 µM (active)

O=[N+]([O-])c1ncccc1Oc1nc(-c2cccnc2)nc2ccccc12
IC50 (cells): 1.15 µM (active) | CC50 [5]: > 40 µM (active)

COc1ccc(N/N=C(\C#N)C(=N)SCc2ccccc2)cc1
AC50 [3]: 3.6 µM (active) | EC50 (Protein RecA): 8.67 µM (active)

COc1cc(OC)cc(-c2cc3nc(C)c(CCC(=O)NC(C)CCc4ccco4)c(C)n3n2)c1 (centres undefined)
EC50 [4]: 0.45 µM (active) | CC50 [5]: 31.8 µM (active) | EC50 [6]: > 30 µM (not active)

CC(C)[C@H](CO)N(Cc1cccc(F)c1)c1nc(Nc2cccc(Cl)c2)c2ncn(C(C)C)c2n1
CC50 [5]: > 40 µM (active)

COc1ccc2nc(-c3cccc(F)c3)cc(O)c2c1
EC50 (BJ [9]): 0.885 µM (active) | EC50 [10]: 2.39 µM (inconclusive) | EC50 (BJ [11]): 1.24 µM (active) | EC50 (BJ [12]): 1.41 µM (inconclusive)

Cc1nn(-c2ccccc2)c2c1C1(C(=O)Nc3ccccc31)N1C(=N2)Sc2ccccc21 (centres undefined)
CC50 [1]: 18.4 µM (active)

CCCNC(=O)c1cc2c(c(-c3cccc(-c4cc5ccccc5o4)c3)n1)[C@@H](CCO)N(C(=O)NC(C)C)C2
AC50 [15]: 4.15 µM (active)
